A melting point compilation (Tetko et al.; mined from patent text by program, amines drawn as free bases though some values may be those of a salt)

Q: Which melting point does the source give for `CC#Cc1ccc(-c2ccc(-c3ccc(CCCCC)c(F)c3F)cc2)cc1` here?
A: Its melting point is 127 °C.

Q: For `O=S1(=O)NCc2ccccc2N1`, which melting point is on record?
A: Its melting point is 178 to 180 °C.

Q: With `c1ccc(-c2cc(NC3=NCCN3)cc3[nH]cnc23)cc1` as the molecule, how does the melting point read?
A: The melting point was 149 to 151 °C.

Q: For `CCOc1cc2c(c3c1OC(C)(C)C3)C(c1cccc(C(=O)NC)c1)=NC(C)(C)C2=O`, which melting point is on record?
A: Its melting point is 233 to 235 °C.

Q: With `ClC=C(c1ccc(Cl)cc1)c1ccc(Cl)cc1` as the molecule, how does the melting point read?
A: Its melting point is 65 to 67 °C.

Q: Which melting point does the source give for `CC(C)n1nc(-c2sc(NC(=O)c3ccccc3Cl)nc2-c2ccccc2)ccc1=O` here?
A: Its melting point is 220 to 221 °C.

Q: With `Cn1cc(C2=C(c3cn(CCCN)c4ccccc34)C(=O)NC2=O)c2ccccc21` as the molecule, how does the melting point read?
A: Its melting point is 195 to 197 °C.

Q: Which melting point does the source give for `Nc1cccc(C(=O)Nc2ccccc2)c1` here?
A: The melting point was 118 to 120 °C.

Q: Which melting point does the source give for `CNC(=O)C1CN(CCCC(c2ccc(F)cc2)c2ccc(F)cc2)CCN1CC(=O)Nc1c(C)cc(N)cc1C` (stereo not given) here?
A: The melting point was 112 °C.

Q: Which melting point does the source give for `N#Cc1ccc(C(=O)[C@H]2C[C@H]2C(=O)O)cc1` (relative stereo) here?
A: The melting point was 180 to 182 °C.

Q: With `CC1CCC(NC(=O)NS(=O)(=O)c2ccc(CCNC(=O)N3CC4CCCCC4C3=O)cc2)CC1` (stereo not given) as the molecule, how does the melting point read?
A: The melting point was 153 to 155 °C.

Q: For `CC(CC(=O)OCc1ccccc1)NC(=O)CCNC(=O)OC(C)(C)C` (stereo not given), which melting point is on record?
A: The melting point was 70 to 72 °C.

Q: With `CCC(C)NC1=NS(=O)(=O)c2ccc(Cl)cc2N1` (stereo not given) as the molecule, how does the melting point read?
A: Its melting point is 242 to 245 °C.

Q: With `CSc1ccc(-c2ccccc2)c([N+](=O)[O-])c1` as the molecule, how does the melting point read?
A: Its melting point is 51 to 52 °C.

Q: With `O=c1cc(-c2ccc(F)cc2)c2ccc(Sc3cc(F)cc(C(O)(c4nccs4)C(F)(F)F)c3)cc2o1` (stereo not given) as the molecule, how does the melting point read?
A: Its melting point is 72 to 73 °C.

Q: Which melting point does the source give for `COc1ccc(C2=NO[C@]3(CCOC3)C2)cc1OC1CCCC1` here?
A: The melting point was 110 °C.

Q: Which melting point does the source give for `CC1(C)OC(=S)Nc2ccc(-c3cccc(C#N)c3)cc21` here?
A: The melting point was 236 to 237 °C.

Q: Which melting point does the source give for `COc1ccc(CC2CCC3NCC(CO)CC3C2)cc1` (stereo not given) here?
A: The melting point was 160 to 162 °C.

Q: Which melting point does the source give for `Cc1cc(CNc2cccc3c2C(=O)N(C2CCC(=O)NC2=O)C3=O)oc1C` (stereo not given) here?
A: The melting point was 127 to 129 °C.

Q: Which melting point does the source give for `CC(=O)c1c(-c2cc(C)cs2)sc(-c2ccncc2)c1C` here?
A: Its melting point is 106 to 108 °C.

Q: Which melting point does the source give for `CC1(C)CCC(C)(C)c2cc(C(O)CCC(=O)O)ccc21` (stereo not given) here?
A: The melting point was 10 °C.

Q: For `O=[N+]([O-])c1cnc(N2CCc3ccccc3CC2)c([N+](=O)[O-])c1`, which melting point is on record?
A: Its melting point is 137 to 140 °C.

Q: For `CNc1nn2cc(-c3ccccc3)nc2s1`, which melting point is on record?
A: The melting point was 177 °C.

Q: Which melting point does the source give for `O=C1CCCN1C(=O)Oc1ccc(F)cc1` here?
A: Its melting point is 89 to 90 °C.

Q: With `CCN(c1cc(S(C)(=O)=O)ccc1C(=O)O)S(C)(=O)=O` as the molecule, how does the melting point read?
A: Its melting point is 199 to 200 °C.

Q: With `O=C1SCCN1Cc1ccc([N+](=O)[O-])cc1` as the molecule, how does the melting point read?
A: Its melting point is 146 to 148 °C.

Q: For `CN(C)c1nc2ccccc2n(-c2ccc(Cl)cc2)c1=O`, which melting point is on record?
A: Its melting point is 235 to 237 °C.

Q: Which melting point does the source give for `CCCc1nc2c(N)nc3cccnc3c2n1CC1(O)CCOCC1` here?
A: Its melting point is 209 to 210 °C.

Q: Which melting point does the source give for `Cc1nn(C)c(=O)n1-c1ccccc1COc1ccn(-c2ccc(Cl)cc2)n1` here?
A: Its melting point is 107 to 108 °C.

Q: With `COc1ccc2cc(S(=O)(=O)Cc3ccc(OC)c([N+](=O)[O-])c3)c(=O)oc2c1` as the molecule, how does the melting point read?
A: Its melting point is 250 to 252 °C.

Q: With `CC(C)C1c2onc(-c3ccc(Cl)cc3)c2CCC1C(=O)O` (stereo not given) as the molecule, how does the melting point read?
A: The melting point was 180 to 182 °C.

Q: For `CCN(C=C1C(=O)N(c2cccc(Cl)c2)c2ccccc21)CC`, which melting point is on record?
A: The melting point was 74 to 75.5 °C.

Q: For `Cc1oc(-c2ccccc2)nc1COc1ccc(C(=O)c2ccccc2)c(O)c1`, which melting point is on record?
A: The melting point was 115 to 116 °C.

Q: For `CCCCN1C(=O)NC(=Cc2cccs2)C1=O`, which melting point is on record?
A: Its melting point is 140 °C.

Q: For `O=C(O)C(Cc1ccccc1)C(=O)NCc1cccc2ccccc12` (stereo not given), which melting point is on record?
A: Its melting point is 142 to 145 °C.

Q: Which melting point does the source give for `Cc1nc(C)c(Cl)c(NCc2nccc(N(C)CCN3CCc4ccccc4C3)c2Cl)n1` here?
A: Its melting point is 81 to 93 °C.

Q: Which melting point does the source give for `COc1cc2c(cc1OC)CN(CCCc1ccc(NC(=O)c3cccc4c(=O)c5cccc(C)c5[nH]c34)cc1)CC2` here?
A: Its melting point is 120 °C.

Q: With `CN1C(=O)C2(COc3cc4c(cc32)OCCO4)c2c(Oc3ccc(F)cc3)cccc21` (stereo not given) as the molecule, how does the melting point read?
A: The melting point was 151 to 153 °C.

Q: For `COc1ccc(COC(=O)ON=C(C#N)c2ccccc2)cc1`, which melting point is on record?
A: The melting point was 112 to 113 °C.

Q: With `CCCCCCCCCCCCCCN(C)c1ccc(N)cc1C(=O)O` as the molecule, how does the melting point read?
A: Its melting point is 79 °C.

Q: For `N#Cc1c(N2CCCCC2)cccc1[N+](=O)[O-]`, which melting point is on record?
A: Its melting point is 119 to 121 °C.

Q: Which melting point does the source give for `CCS(=O)(=O)N[C@@H]1CCCC[C@H]1OCC(=O)O` (relative stereo) here?
A: The melting point was 120 to 122 °C.

Q: For `O=[N+]([O-])c1ccc(CO)c(Sc2ccccc2O)c1`, which melting point is on record?
A: Its melting point is 131 to 133 °C.

Q: For `COc1ccc(COCc2nc(C(C)C)c(Sc3cc(Cl)cc(Cl)c3)n2CC(F)(F)F)cc1`, which melting point is on record?
A: Its melting point is 134 to 136 °C.

Q: Which melting point does the source give for `CC(C)(C)NC(=O)c1cnc(Cl)cc1-c1ccc(F)cc1` here?
A: The melting point was 168 to 173 °C.

Q: With `O=C1CC[C@@H](CO)N1Cc1ccccc1` as the molecule, how does the melting point read?
A: Its melting point is 82 to 84 °C.

Q: For `CCC(=O)C1=C(O)CC(c2cccc(O)c2)CC1=O` (stereo not given), which melting point is on record?
A: Its melting point is 124 to 131 °C.

Q: For `Cc1[nH]nc(Nc2ccccc2)c1C(=O)OC(C)C`, which melting point is on record?
A: Its melting point is 138 to 139 °C.

Q: Which melting point does the source give for `CCC(CC)N(Cc1ccc(C(=O)OC)cc1)S(=O)(=O)c1ccc(C)cc1` here?
A: The melting point was 106 to 108 °C.

Q: With `CCOC(=O)C=Cc1ccc(C(=O)c2ccc3c(c2)C2(C)C4(C)CCC(C4)C2(C)O3)cc1` (stereo not given) as the molecule, how does the melting point read?
A: The melting point was 115 to 116 °C.
